Test results reported in PubChem BioAssay (NCI).
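Interpolation was linear, between the two tested concentrations surrounding the appropriate level; five concentrations were tested over 48 hours in 96-well plates. The concentration for 50% growth inhibition is given as GI50. TGI marks complete inhibition of growth.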

Key:
Assay in all cases: NCI anticancer screen, dose series, 48 h
[1] = system: CAKI-1 renal
[2] = system: SK-MEL-5 melanoma
[3] = system: IGROV1 ovarian
[4] = system: NCI-H23 lung
[5] = system: NCI/ADR-RES ovarian
[6] = system: SK-MEL-28 melanoma
[7] = system: SF-268 CNS
[8] = system: K-562 leukemia
[9] = system: HCT-15 colon
[10] = system: TK-10 renal

SMILES | TGI [1] [µM] | TGI [2] [µM] | TGI [3] [µM] | TGI [4] [µM] | TGI [5] [µM] | TGI [6] [µM] | TGI [7] [µM] | TGI [8] [µM] | TGI [9] [µM] | TGI [10] [µM] | GI50 [1] [µM] | GI50 [2] [µM] | GI50 [3] [µM] | GI50 [4] [µM] | GI50 [5] [µM] | GI50 [6] [µM] | GI50 [7] [µM] | GI50 [8] [µM] | GI50 [9] [µM] | GI50 [10] [µM]
N#Cc1c(Nc2ccccc2)[n+]([O-])c2ccc(Cl)cc2[n+]1[O-] | > 100 | 4.84 | 5.96 | 17.4 | 8.15 | > 100 | > 48.6 | > 22.6 | 6.53 | 49.2 |  |  |  |  |  |  |  |  |  | 
COc1ccc(-c2c(C#N)cnc(N)c2-c2nc3cc(C)c(C)cc3[nH]2)cc1 | > 100 | > 100 | > 100 | 33.3 | > 100 | > 100 | 65.7 | > 100 | > 100 | 26.4 | 14.6 | 8.78 | 16 | 5.37 | 6.84 | 17.2 | 9.8 | 6.03 | 5.81 | 5.94
O=C(CSCC(=O)N/N=C/c1ccncc1)N/N=C/c1ccncc1 | > 100 | > 100 | > 100 | > 100 | > 100 | > 100 | > 100 | > 100 | > 100 | > 100 |  |  |  |  |  |  |  |  |  | 
CC(C)C(=O)CP(=O)(O)O | > 100 | > 100 | > 100 | > 100 | > 100 | > 100 | > 100 | > 100 | > 100 | > 100 |  |  |  |  |  |  |  |  |  | 
Cc1c(C=C(C#N)C#N)c(=O)n(C)c(=O)n1C | > 100 | > 100 | > 100 | > 100 | > 100 | > 100 | > 100 | > 100 | > 100 | > 100 |  |  |  |  |  |  |  |  |  | 
O=C(NC(Cc1ccccc1)P(=O)(O)c1ccccc1)OCc1ccccc1 (stereo not drawn) | > 100 | > 100 | > 100 | > 100 | > 100 | > 100 | > 100 | > 100 | > 100 | > 100 |  |  |  |  |  |  |  |  |  | 
C=C(C)COC(=O)COCC(=O)OCC(=C)C | > 100 | > 100 | > 100 | > 100 | > 100 | > 100 | > 100 | > 100 | > 100 | > 100 |  |  |  |  |  |  |  |  |  | 
O[C@H]1[C@@H]2OC[C@@H](O)[C@H](OCc3ccccc3)[C@@](COCc3ccccc3)(O2)[C@@H]1OCc1ccccc1 | 0.0898 |  | 27.5 | 32.3 | 32 | 27.3 | 42.8 | 67 | 30.9 | 32.5 |  |  |  |  |  |  |  |  |  | 
S=c1sscc1N1CCSc2ssc(=S)c21 | > 100 | > 100 | > 100 | 69.8 | > 100 | > 100 | > 100 | > 100 | > 100 | 81.8 |  |  |  |  |  |  |  |  |  | 
CCOC(=O)C(C(=O)OCC)C(NC(=O)Nc1cc(C(F)(F)F)ccc1OC)(C(F)(F)F)C(F)(F)F | 91.5 | 39.6 | 96.9 | 85.6 | 75.9 | > 100 | > 100 | 74.5 | > 100 | > 100 |  |  |  |  |  |  |  |  |  | 
COC(=O)c1c(OC(C)=O)ccc2c1c1cc3ccccc3c(OC(C)=O)c1n2C | 70.3 | 31.2 | 12.8 | > 100 | > 100 | > 100 | > 100 | > 100 | > 100 | 92.5 |  |  |  |  |  |  |  |  |  | 
CCCCn1c2c(n(CCCC)c1=[Se])-c1c(n(CCCC)c(=[Se])n1CCCC)S[Se][Se]S2 | 17.7 | 34.6 | 18.5 | 70.4 | 39.5 | > 100 | > 100 | > 66.9 | 27.9 | 43.3 |  |  |  |  |  |  |  |  |  | 
CCOC(=O)c1c[nH]c2cc3c(cc2c1=O)CCS3 | > 100 | > 100 | > 100 | > 100 | > 100 | > 100 | > 100 | > 100 | > 100 | > 100 |  |  |  |  |  |  |  |  |  | 
C[Si](C)(C)C#CCOC=C1CC1 | > 100 | > 100 | > 100 | > 100 | > 100 | > 100 | > 100 | > 100 | > 100 | > 100 |  |  |  |  |  |  |  |  |  | 
NC1=CN(Cc2ccccc2)C2=N/C(=C\c3ccco3)C(=O)N12 | > 100 | > 100 | > 100 | > 100 | > 100 | > 100 | > 100 | > 100 | > 100 | > 100 |  |  |  |  |  |  |  |  |  | 
CSc1nc(Cl)c2c(n1)Sc1nc3ccccc3n1N=C2 | 72.5 | 72.6 | 36.7 | > 100 | 55.1 | > 100 | > 100 | 50 | 36.7 | > 100 |  |  |  |  |  |  |  |  |  | 
O=Cc1ccc2[nH]c(=O)oc2c1 | > 100 |  | > 100 | > 100 | > 100 | > 100 | > 100 | > 100 | > 100 | > 100 |  |  |  |  |  |  |  |  |  | 
